From patent US5565455A, “Method for treating substance abuse disorders” (priority 1992, dated 1996)
Structures can show the parent of a compound that is named as a salt. Where two headings read alike, the source gives them in different places.

How the values were obtained:
5-HT1A = molecular target: T1, 5-HT1A (Homo sapiens, UniProt P08908); test: biochemical; assay type: binding
T1 sequence (P08908 1-422): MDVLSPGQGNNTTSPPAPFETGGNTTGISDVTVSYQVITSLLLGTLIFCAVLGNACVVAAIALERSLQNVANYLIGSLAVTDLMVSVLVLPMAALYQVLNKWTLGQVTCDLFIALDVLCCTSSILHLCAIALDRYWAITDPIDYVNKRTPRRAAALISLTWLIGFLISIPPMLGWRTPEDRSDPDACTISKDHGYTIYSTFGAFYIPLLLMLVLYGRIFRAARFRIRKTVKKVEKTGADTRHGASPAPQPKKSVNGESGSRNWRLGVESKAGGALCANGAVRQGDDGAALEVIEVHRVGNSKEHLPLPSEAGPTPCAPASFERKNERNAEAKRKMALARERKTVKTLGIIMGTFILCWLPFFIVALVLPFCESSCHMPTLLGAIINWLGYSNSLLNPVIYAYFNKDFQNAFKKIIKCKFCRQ

[1] = system: 5-HT reuptake, synaptosomes from rat frontal cortex; test: Inhibition of reuptake of [3H-5-HT] by synaptosomes from rat frontal cortex; assay type: biochemical; details: method of Shank et al.
[2] = system: voluntary ethanol consumption in rats; details: cited from earlier work
5-HT2 = 5-HT2 (Homo sapiens, UniProt P28223); test: Drug affinity for 5-HT2 receptor, radioligand 3H-ketanserin, cerebral cortex
Chain of 5-HT2 (P28223 whole entry, species assumed): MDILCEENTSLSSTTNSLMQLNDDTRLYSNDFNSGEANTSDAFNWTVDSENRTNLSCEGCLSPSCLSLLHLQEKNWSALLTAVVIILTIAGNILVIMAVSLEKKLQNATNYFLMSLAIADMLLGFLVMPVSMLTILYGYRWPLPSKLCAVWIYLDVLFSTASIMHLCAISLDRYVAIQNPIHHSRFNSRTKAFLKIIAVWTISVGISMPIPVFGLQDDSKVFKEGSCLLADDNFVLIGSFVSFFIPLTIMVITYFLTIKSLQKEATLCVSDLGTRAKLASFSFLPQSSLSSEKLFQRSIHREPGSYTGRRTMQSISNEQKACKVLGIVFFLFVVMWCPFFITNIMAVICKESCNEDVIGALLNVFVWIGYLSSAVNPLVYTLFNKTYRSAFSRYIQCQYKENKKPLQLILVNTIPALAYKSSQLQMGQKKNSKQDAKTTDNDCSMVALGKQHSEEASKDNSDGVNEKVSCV

[3] = system: alcohol-dependent individuals; details: cited from earlier work
[4] = system: consumption of alcohol by monkeys; details: cited from earlier work
[5] = system: Sprague-Dawley rats induced to drink alcohol chronically; test: Alcohol drinking in Sprague-Dawley rats induced by cyanamide injections; assay type: in vivo, rat
Procedure: To further illustrate the useful pharmacological properties of FG5893, the effect of FG5893 administered systemically was determined in Sprague-Dawley rats induced to drink alcohol chronically by a series of intraperitoneal injections of cyan-amide according to experimental procedures described previously (Critcher, E. C. and R. D. Myers, Alcohol 4:347-353, 1987). Intakes of food and body weights were recorded.
FG5893 in a dose of 0.5, 1.0 and 2.5 mg/kg was administered twice a day for three consecutive days. […] This finding is notable because drugs that attenuate the preference for alcohol consumed in a concentration of pharmacological consequence typically impair the ingestion of food.

[6] = clinical trial versus placebo in alcohol-dependent individuals
[7] = 0.5, 1.0 and 2.5 mg/kg twice a day for three consecutive days, all doses

Question: For `CCNC(=O)N1CCN(CCCC(c2ccc(F)cc2)c2ccc(F)cc2)CC1` [Amperozide], which Ki (5-HT1A) is on record?
Answer: Its Ki is 0.805 µM.

Question: What about the IC50 [1] of the same compound?
Answer: Its IC50 is 0.32 µM.

Question: And the “consumption of food and level of body weight” value ([2]; rat, in vivo)?
Answer: The value was “without affecting”.

Question: What about the “intake of alcohol in rats” value ([2]; rats) of the same compound?
Answer: Its value is “significantly attenuate”.

Question: What about the Ki (5-HT2) of the same compound?
Answer: The Ki was 0.017 µM.

Question: For `O=C1CC2(CCCC2)CC(=O)N1CCCCN1CCN(c2ncccn2)CC1` [Buspirone], which drop-out rate [3, 6] is on record?
Answer: The drop-out rate was “lower drop-out rate”.

Question: And the signs of craving [3, 6]?
Answer: The signs of craving was “fewer signs of craving”.

Question: And the “consumption of alcohol by monkeys” value [4]?
Answer: The value was “attenuate significantly”.

Question: Which Ki (5-HT1A; Radioligand 3H-8-OH-DPAT, tissue hippocampus) does the source give for `COC(=O)c1cccnc1N1CCN(CCCC(c2ccc(F)cc2)c2ccc(F)cc2)CC1` [FG5893, 2-[4-[4,4-bis(4-fluorophenyl)butyl]-1-piperazinyl]-3-pyridinecarboxylic acid methyl ester dihydrochloride ethylat] here?
Answer: The Ki was 0.0007 µM.

Question: What about the IC50 [1] of the same compound?
Answer: Its IC50 is 0.08 µM.

Question: And the “intake of alcohol, absolute g/kg” value [5, 7]?
Answer: Its value is “significantly reduced”.

Question: What about the “proportion of alcohol to total fluid intake” value [5, 7] of the same compound?
Answer: The value was “significantly reduced”.

Question: And the “alcohol consumption after the injection sequence” value ([5]; 1.0 and 2.5 mg/kg doses, two 4-day tests immediately following the injection sequence and after a 40-day interval)?
Answer: The value was “continued to suppress alcohol consumption”.

Question: What about the body weights ([5]; during or after administration) of the same compound?
Answer: Its body weights is “Neither body weights nor intakes of food of the rats were affected”.

Question: And the intakes of food ([5]; during or after administration)?
Answer: The intakes of food was “Neither body weights nor intakes of food of the rats were affected”.

Question: And the Ki (5-HT2)?
Answer: Its Ki is 0.004 µM.

Question: With `CN(C)C/C=C(/c1ccc(Br)cc1)c1cccnc1` [Zimelidine] as the compound, how does the “number of abstinent days” value ([3]; human trials) read?
Answer: Its value is “increase”.

Question: What about the “number of daily drinks” value ([3]; human trials) of the same compound?
Answer: Its value is “slight reduction”.

Question: And the IC50 [1]?
Answer: Its IC50 is 0.12 µM.

Question: What about the “ingestion of food and alcohol” value ([2]; concomitantly) of the same compound?
Answer: Its value is “attenuate”.

Question: What about the “voluntary ethanol consumption in rats” value ([2]; rats) of the same compound?
Answer: Its value is “potent inhibitory effect”.
